# Results reported in patent US20240208972A1, “LRRK2 INHIBITORS AND USES THEREOF” (NEURON23, INC., priority 2022, published 2024).
# Tests used:
# [1] = Human hepatocyte stability, in vitro h-Hept CLpredict; format: in vitro ADME; details: cryopreserved hepatocytes, predicted hepatic clearance, cells without asterisk, read-out: hHep Cl
# In short: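 Cryopreserved human hepatocytes at 0.5×10^6 viable cells/mL in William's E medium, compound added from 100 μM solution, sampled 0–120 min in duplicate with LC/MS/MS quantitation. t1/2 from parent disappearance converted to CLint, then scaled to predicted hepatic clearance (well-stirred model, fub assumed 1) and extraction ratio.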
# Caco-2 cells = test: Caco-2 bidirectional permeability; format: in vitro ADME; details: for Caco-2 A2B (10^−6 cm/s): A to B; for Caco-2 A2B (10^−6 cm/s) / Caco-2 B2A (10^−6 cm/s): HBSS pH 7.4, 2 hours; for Caco-2 B2A (10^−6 cm/s): B to A; for Caco-2 ER: Efflux Ratio=Papp (BA)/Papp (AB)
# In short: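 Caco-2 monolayers grown 21–28 days on PET inserts were run in duplicate in HBSS with 10 mM HEPES, pH 7.4. Compound was tested in both directions at […] for 2 h at 37 °C and quantified by LC-MS/MS. Papp, % recovery and efflux ratio (B-A/A-B) were calculated, with lucifer yellow checking monolayer integrity.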
SMILES,CLhep predicted at 1 µM [1] [mL/min/kg],Caco-2 A2B (10^−6 cm/s) (Caco-2 cells),Caco-2 B2A (10^−6 cm/s) (Caco-2 cells),Caco-2 ER (Caco-2 cells)
"Cc1n[nH]c2c1N=C(c1c(F)cccc1F)Nc1ccc(N3CCO[C@@H](C)C3)cc1-2 [Example 26, (S)-4-(5-(2,6-difluorophenyl)-3-methyl-1,6-dihydrobenzo[d]pyrazolo[3,4-f][1,3]diazepin-9-yl)-2-methylmorpholine]",< 6.3,H (H (High permeability)”: A2B (B2A)>5),H (H (High permeability)”: A2B (B2A)>5),N (N (Non-substrate)”: ER<2.5)
"[2H]C([2H])([2H])c1n[nH]c2c1N=C(c1c(F)cccc1F)Nc1ccc(N3CCO[C@@H](C)C3)cc1-2 [Example 34, (2S)-4-[5-(2,6-difluorophenyl)-3-(trideuteriomethyl)-1,6-dihydropyrazolo[4,3-d][1,3]benzodiazepin-9-yl]-2-methyl-morpholine]",< 6.3,H (H (High permeability)”: A2B (B2A)>5),H (H (High permeability)”: A2B (B2A)>5),N (N (Non-substrate)”: ER<2.5)
"Cc1n[nH]c2c1N=C(c1c(F)cccc1F)Nc1c-2cc(N2CCN(CC(F)(F)F)CC2)nc1C [Example 23, 5-(2,6-difluorophenyl)-3,7-dimethyl-9-(4-(2,2,2-trifluoroethyl)piperazin-1-yl)-1,6-dihydropyrazolo[4,3-d]pyrido[4,3-f][1,3]diazepine]",6.3 to 14.7,H (H (High permeability)”: A2B (B2A)>5),H (H (High permeability)”: A2B (B2A)>5),N (N (Non-substrate)”: ER<2.5)
"[2H]C1([2H])OC([2H])([2H])C([2H])([2H])N(c2ccc3c(c2)-c2[nH]nc(C)c2N=C(c2c(F)cccc2F)N3)C1([2H])[2H] [Example 22, 2,2,3,3,5,5,6,6-octadeuterio-4-[5-(2,6-difluorophenyl)-3-methyl-1,6-dihydropyrazolo[4,3-d][1,3]benzodiazepin-9-yl]morpholine]",6.3 to 14.7,H (H (High permeability)”: A2B (B2A)>5),H (H (High permeability)”: A2B (B2A)>5),N (N (Non-substrate)”: ER<2.5)
"Cc1n[nH]c2c1N=C(c1c(F)cccc1F)Nc1c-2cc(N2CC3(CCOCC3)C2)nc1C [Example 47, 2-[8-(2,6-difluorophenyl)-5,11-dimethyl-3,4,7,9,12-pentazatricyclo[8.4.0.02,6]tetradeca-1(10),2(6),4,7,11,13-hexaen-13-yl]-7-oxa-2-azaspiro[3.5]nonane]",6.3 to 14.7,M (M (Moderate permeability)”: 1≤A2B (B2A)≤5),H (H (High permeability)”: A2B (B2A)>5),L (L (Likely)”: ER>2.5)
"Cc1n[nH]c2c1N=C(c1c(F)cccc1F)Nc1c-2cc(N2CCN(CCF)C[C@H]2C)nc1C (single isomer, unassigned) [Example 18]",6.3 to 14.7,H (H (High permeability)”: A2B (B2A)>5),H (H (High permeability)”: A2B (B2A)>5),N (N (Non-substrate)”: ER<2.5)

# Other lines, results leading:
CLhep predicted at 1 µM [1] [mL/min/kg],Caco-2 A2B (10^−6 cm/s) (Caco-2 cells),Caco-2 B2A (10^−6 cm/s) (Caco-2 cells),Caco-2 ER (Caco-2 cells),SMILES
< 6.3,H (H (High permeability)”: A2B (B2A)>5),H (H (High permeability)”: A2B (B2A)>5),L (L (Likely)”: ER>2.5),"[2H]C([2H])([2H])c1n[nH]c2c1N=C(c1c(F)cccc1F)Nc1cnc(N3CCOCC3)cc1-2 [Example 32, 4-[8-(2,6-difluorophenyl)-5-(trideuteriomethyl)-3,4,7,9,12-pentazatricyclo[8.4.0.02,6]tetradeca-1(10),2(6),4,7,11,13-hexaen-13-yl]morpholine]"
< 6.3,H (H (High permeability)”: A2B (B2A)>5),H (H (High permeability)”: A2B (B2A)>5),N (N (Non-substrate)”: ER<2.5),"Cc1n[nH]c2c1N=C(c1c(F)cccc1F)Nc1cc(F)c(N3CCOCC3)cc1-2 [Example 28, 4-[5-(2,6-difluorophenyl)-8-fluoro-3-methyl-1,6-dihydropyrazolo[4,3-d][1,3]benzodiazepine-9-yl]morpholine]"
